Assay results reported in US20230167073A1 (Teijin Pharma Limited, priority 2020, published 2023).

Target: T1, Human TRPC6 (Homo sapiens, UniProt Q9Y210)
T1 construct: expressed in transfected cells
T1 sequence (Q9Y210 1-931): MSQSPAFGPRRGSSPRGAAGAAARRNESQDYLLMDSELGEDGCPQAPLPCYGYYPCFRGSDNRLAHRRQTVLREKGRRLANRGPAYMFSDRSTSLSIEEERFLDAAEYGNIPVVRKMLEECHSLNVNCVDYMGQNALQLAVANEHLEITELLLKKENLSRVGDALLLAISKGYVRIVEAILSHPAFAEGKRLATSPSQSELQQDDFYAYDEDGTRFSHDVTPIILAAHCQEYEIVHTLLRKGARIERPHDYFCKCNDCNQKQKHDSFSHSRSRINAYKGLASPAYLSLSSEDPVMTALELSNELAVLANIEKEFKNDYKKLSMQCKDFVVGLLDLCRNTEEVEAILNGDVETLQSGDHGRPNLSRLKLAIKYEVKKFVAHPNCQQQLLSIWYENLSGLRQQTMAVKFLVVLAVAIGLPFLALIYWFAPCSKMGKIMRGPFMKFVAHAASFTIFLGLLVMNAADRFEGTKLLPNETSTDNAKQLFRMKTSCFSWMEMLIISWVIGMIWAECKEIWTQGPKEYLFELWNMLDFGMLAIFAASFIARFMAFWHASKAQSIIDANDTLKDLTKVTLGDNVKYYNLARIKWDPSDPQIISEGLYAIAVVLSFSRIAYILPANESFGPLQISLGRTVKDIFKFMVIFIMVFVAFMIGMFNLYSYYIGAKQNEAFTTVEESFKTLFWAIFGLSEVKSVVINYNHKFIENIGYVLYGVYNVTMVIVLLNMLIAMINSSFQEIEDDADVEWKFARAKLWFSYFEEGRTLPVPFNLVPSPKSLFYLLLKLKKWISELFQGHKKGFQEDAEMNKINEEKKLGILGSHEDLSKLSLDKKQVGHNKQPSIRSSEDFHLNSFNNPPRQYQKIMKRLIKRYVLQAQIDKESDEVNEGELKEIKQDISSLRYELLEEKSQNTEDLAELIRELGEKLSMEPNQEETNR
Test: Evaluation of TRPC6 channel inhibitory activity (1), FLIPR Calcium 5 Assay Kit, OAG stimulation (Compound Nos. 1-1293)
Type: cell-based
Details: Human TRPC6 stably-expressing cells, OAG 30 μM, FLIPR Calcium 5 Assay Kit; read-out: Inhibitory activity (pIC50 class) (converted)
Method in brief: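 Calcium influx read by FLIPR fluorescence in cells stably expressing human TRPC6, dye-loaded 30 min. Compounds preincubated 20 min, then OAG stimulation at 30 μM final. Inhibition fitted by four-parameter logistic regression to give pIC50, reported as +/++/+++ categories.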

Row | SMILES | IC50 [nM]
1 | Cc1c(Oc2cc(C#N)ccc2-c2ncc(CCN)cn2)cnn1CC(F)(F)F [compound 836, 4-[5-(2-aminoethyl)pyrimidin-2-yl]-3-[5-methyl-1-(2,2,2-trifluoroethyl)pyrazol-4-yl]oxybenzonitrile] | 10 to 1000
2 | Cc1c(Oc2cc(C#N)ccc2-c2ncc(CN)cn2)cnn1CC(F)(F)F [compound 837, 4-[5-(aminomethyl)pyrimidin-2-yl]-3-[5-methyl-1-(2,2,2-trifluoroethyl)pyrazol-4-yl]oxybenzonitrile] | 10 to 1000
3 | COCCCCN(C)c1cc(Oc2cc(C#N)ccc2-c2ncc(CCN)cn2)n(C)n1 [compound 838, 4-[5-(2-aminoethyl)pyrimidin-2-yl]-3-[5-[4-methoxybutyl(methyl)amino]-2-methylpyrazol-3-yl]oxybenzonitrile] | 10 to 1000
4 | CN(C)C(=O)CNC(C)(C)Cc1ccc(-c2ccc(C#N)cc2Oc2cc(-c3ccccn3)nn2C)nc1 [compound 839, 2-[[1-[6-[4-cyano-2-(2-methyl-5-pyridin-2-ylpyrazol-3-yl)oxyphenyl]pyridin-3-yl]-2-methylpropan-2-yl]amino]-N,N-dimethylacetamide] | > 1000
5 | Cc1cc(Oc2cc(C#N)ccc2-c2ccc(CC(C)(C)NCC(=O)N(C)C)cn2)cc(N2CCOCC2)n1 [compound 840, 2-[[1-[6-[4-cyano-2-(2-methyl-6-morpholin-4-ylpyridin-4-yl)oxyphenyl]pyridin-3-yl]-2-methylpropan-2-yl]amino]-N,N-dimethylacetamide] | > 1000
6 | Cc1cc(Oc2cc(C#N)ccc2-c2ncc(CNCC(N)=O)cn2)cc(-c2ccccn2)n1 [compound 841, 2-[[2-[4-cyano-2-(2-methyl-6-pyridin-2-ylpyridin-4-yl)oxyphenyl]pyrimidin-5-yl]methylamino]acetamide] | > 1000
7 | CCN(c1cc(Oc2cc(C#N)ccc2-c2ncc(CCN)cn2)n(C)n1)C(C)C [compound 842, 4-[5-(2-aminoethyl)pyrimidin-2-yl]-3-[5-[ethyl(propan-2-yl)amino]-2-methylpyrazol-3-yl]oxybenzonitrile] | < 10
8 | COCCOc1cc(Oc2cc(C#N)ccc2-c2ncc(CN)cn2)nc(C)n1 [compound 843, 4-[5-(aminomethyl)pyrimidin-2-yl]-3-[6-(2-methoxyethoxy)-2-methylpyrimidin-4-yl]oxybenzonitrile] | > 1000
9 | Cc1nc(Oc2cc(C#N)ccc2-c2ncc(CN)cn2)cc(O[C@@H]2CCOC2)n1 [compound 844, 4-[5-(aminomethyl)pyrimidin-2-yl]-3-[2-methyl-6-[(3R)-oxolan-3-yl]oxypyrimidin-4-yl]oxybenzonitrile] | > 1000
10 | Cc1nc(Oc2cc(C#N)ccc2-c2ncc(CN)cn2)cc(O[C@H]2CCOC2)n1 [compound 845, 4-[5-(aminomethyl)pyrimidin-2-yl]-3-[2-methyl-6-[(3S)-oxolan-3-yl]oxypyrimidin-4-yl]oxybenzonitrile] | > 1000
11 | Cc1nc(OCC(C)C)cc(Oc2cc(C#N)ccc2-c2ncc(CN)cn2)n1 [compound 846, 4-[5-(aminomethyl)pyrimidin-2-yl]-3-[2-methyl-6-(2-methylpropoxy)pyrimidin-4-yl]oxybenzonitrile] | 10 to 1000
12 | Cc1nc(OCC2CC2(F)F)cc(Oc2cc(C#N)ccc2-c2ncc(CN)cn2)n1 (stereo not drawn) [compound 847, 4-[5-(aminomethyl)pyrimidin-2-yl]-3-[6-[(2,2-difluorocyclopropyl)methoxy]-2-methylpyrimidin-4-yl]oxybenzonitrile] | > 1000
13 | Cc1nc(Oc2cc(C#N)ccc2-c2ncc(CCN)cn2)cc(OC(C)C)n1 [compound 848, 4-[5-(2-aminoethyl)pyrimidin-2-yl]-3-(2-methyl-6-propan-2-yloxypyrimidin-4-yl)oxybenzonitrile] | < 10
14 | Cc1nc(OCC(C)C)cc(Oc2cc(C#N)ccc2-c2ncc(CCN)cn2)n1 [compound 849, 4-[5-(2-aminoethyl)pyrimidin-2-yl]-3-[2-methyl-6-(2-methylpropoxy)pyrimidin-4-yl]oxybenzonitrile] | < 10
15 | Cc1nc(Oc2cc(C#N)ccc2-c2ncc(CN)cn2)cc(N2C=NCCC2)n1 [compound 850, 4-[5-(aminomethyl)pyrimidin-2-yl]-3-[6-(5,6-dihydro-4H-pyrimidin-1-yl)-2-methylpyrimidin-4-yl]oxybenzonitrile] | < 10
16 | Cc1nc(Oc2cc(C#N)ccc2-c2ncc(CN)cn2)cc(N2CCCC2=O)n1 [compound 851, 4-[5-(aminomethyl)pyrimidin-2-yl]-3-[2-methyl-6-(2-oxopyrrolidin-1-yl)pyrimidin-4-yl]oxybenzonitrile] | > 1000

The next lines start with the values.

Row | IC50 [nM] | SMILES
17 | > 1000 | Cc1nc(Oc2cc(C#N)ccc2-c2ncc(CN)cn2)cc(N(C)C2COC2)n1 [compound 852, 4-[5-(aminomethyl)pyrimidin-2-yl]-3-[2-methyl-6-[methyl(oxetan-3-yl)amino]pyrimidin-4-yl]oxybenzonitrile]
18 | 10 to 1000 | Cc1nc(Oc2cc(C#N)ccc2-c2ncc(CCN)cn2)cc(N2CCC2)n1 [compound 853, 4-[5-(2-aminoethyl)pyrimidin-2-yl]-3-[6-(azetidin-1-yl)-2-methylpyrimidin-4-yl]oxybenzonitrile]
19 | < 10 | CCN(C)c1cc(Oc2cc(C#N)ccc2-c2ncc(CCN)cn2)nc(C)n1 [compound 854, 4-[5-(2-aminoethyl)pyrimidin-2-yl]-3-[6-[ethyl(methyl)amino]-2-methylpyrimidin-4-yl]oxybenzonitrile]
20 | 10 to 1000 | Cc1nc(Oc2cc(C#N)ccc2-c2ncc(CCN)cn2)cc(N2CCC2=O)n1 [compound 855, 4-[5-(2-aminoethyl)pyrimidin-2-yl]-3-[2-methyl-6-(2-oxoazetidin-1-yl)pyrimidin-4-yl]oxybenzonitrile]
21 | < 10 | CCN(CC)c1cc(Oc2cc(C#N)ccc2-c2ncc(CCN)cn2)nc(C)n1 [compound 856, 4-[5-(2-aminoethyl)pyrimidin-2-yl]-3-[6-(diethylamino)-2-methylpyrimidin-4-yl]oxybenzonitrile]
22 | < 10 | Cc1nc(Oc2cc(C#N)ccc2-c2ncc(CCN)cn2)cc(N(C)C(C)C)n1 [compound 857, 4-[5-(2-aminoethyl)pyrimidin-2-yl]-3-[2-methyl-6-[methyl(propan-2-yl)amino]pyrimidin-4-yl]oxybenzonitrile]
23 | 10 to 1000 | Cc1nc(Oc2cc(C#N)ccc2-c2ncc(CCN)cn2)cc(N2CC(F)C2)n1 [compound 858, 4-[5-(2-aminoethyl)pyrimidin-2-yl]-3-[6-(3-fluoroazetidin-1-yl)-2-methylpyrimidin-4-yl]oxybenzonitrile]
24 | < 10 | Cc1nc(Oc2cc(C#N)ccc2-c2ncc(CCN)cn2)cc(N2CCC[C@H]2C)n1 [compound 859, 4-[5-(2-aminoethyl)pyrimidin-2-yl]-3-[2-methyl-6-[(2R)-2-methylpyrrolidin-1-yl]pyrimidin-4-yl]oxybenzonitrile]
25 | < 10 | Cc1nc(Oc2cc(C#N)ccc2-c2ncc(CCN)cn2)cc(N2CCC[C@@H]2C)n1 [compound 860, 4-[5-(2-aminoethyl)pyrimidin-2-yl]-3-[2-methyl-6-[(2S)-2-methylpyrrolidin-1-yl]pyrimidin-4-yl]oxybenzonitrile]
26 | < 10 | Cc1nc(Oc2cc(C#N)ccc2-c2ncc(CCN)cn2)cc(N(C)CC2CC2)n1 [compound 861, 4-[5-(2-aminoethyl)pyrimidin-2-yl]-3-[6-[cyclopropylmethyl(methyl)amino]-2-methylpyrimidin-4-yl]oxybenzonitrile]
27 | 10 to 1000 | COCCN(C)c1cc(Oc2cc(C#N)ccc2-c2ncc(CCN)cn2)nc(C)n1 [compound 862, 4-[5-(2-aminoethyl)pyrimidin-2-yl]-3-[6-[2-methoxyethyl(methyl)amino]-2-methylpyrimidin-4-yl]oxybenzonitrile]
28 | > 1000 | CC(C)OCCN(C)c1cc(Oc2cc(C#N)ccc2-c2ncc(CCN)cn2)n(C)n1 [compound 863, 4-[5-(2-aminoethyl)pyrimidin-2-yl]-3-[2-methyl-5-[methyl(2-propan-2-yloxyethyl)amino]pyrazol-3-yl]oxybenzonitrile]
29 | 10 to 1000 | Cc1nn(C2CCCCC2)cc1Oc1cc(C#N)ccc1-c1ncc(CCN)cn1 [compound 864, 4-[5-(2-aminoethyl)pyrimidin-2-yl]-3-(1-cyclohexyl-3-methylpyrazol-4-yl)oxybenzonitrile]
30 | > 1000 | Cc1nn(C2CCCCC2)cc1Oc1cc(C#N)ccc1-c1ncc(CN)cn1 [compound 865, 4-[5-(aminomethyl)pyrimidin-2-yl]-3-(1-cyclohexyl-3-methylpyrazol-4-yl)oxybenzonitrile]
